In US20080070952A1, “Inhibition or Treatment of Dyskinesia” (PROXIMAGEN LTD.,, priority 2005, published 2008) one finds L-Dopa induced dyskinesia data, which are given here for 4 molecules.

The experiment relates to L-DOPA primed MPTP treated animals (common marmosets). The experiment in a line: L-DOPA induced motor activity, motor disability and dyskinesia (chorea, dystonia) in L-DOPA primed MPTP treated marmosets. The conditions noted are these: same protocol as Examples 1-8; NOS inhibitors s.c., Vinyl L-NIO 6 mg/kg, 7-NI 20 mg/kg, L-NIO dose not given. It is filed as in vivo, Callithrix Jacchus. Here is the method:
In the following procedure, all NOS inhibitors (nNOSi) were administered subcutaneously. All other drugs with the exception of 7-nitroindazole were dissolved in deionised water or for oral administration dissolved in deionised water containing 10% sucrose and were administered orally. 7-nitroindazole was dissolved in a 30:70 v/v in water and DMSO. In experiments using ropinirole, animals were pre-treated with a single oral dose of domperidone (5 mg·kg^−1) as an anti-emetic, 30 min before. Carbidopa and domperidone were given as suspension in deionised water and 10% sucrose.
Adult common marmosets of either sex (Callithrix Jacchus; n=6), weighing between 310 to 380 g were used in this study. Marmosets were housed either in pairs or individually at a temperature of 25±1_ C with 50% relative humidity on a 12-hour light-dark cycle. Animals were fed once daily on a diet of fresh fruit, nuts, Mazuri food pellets, and a supplement of vitamin D3 and had free access to water. On experimental days, the animals were fed following completion of behavioural testing.
Marmosets were treated with 1-methyl-4-phenyl-1,2,3,6-tetrahydropyridine hydrochloride (2.0 mg·kg^−1 subcutaneously; MPTP-HCl; Research Biochemicals International; dissolved in 0.9% sterile saline) daily for 5 consecutive days. This treatment regimen induces a persistent and stable syndrome of akinesia, bradykinesia, rigidity, postural abnormality, incoordination and postural tremor (Jenner and Marsden, 1986; Pearce et al., 1995). Animals were hand fed on a cocktail of Mazuri marmoset jelly, dried milk and pureed bananas until body weight had returned towards pre-treatment levels.
Eight weeks following MPTP-treatment, all animals (n=6) were treated for 30 to 40 days with 12.5 mg·kg^−1 L-DOPA methyl ester (Sigma) plus 12.5 mg·kg^−1 carbidopa (Merck Sharp & Dohme) by oral gavage on a daily basis. Carbidopa was administered 30 to 45 min prior to L-DOPA treatment (Pearce et al., 1995). When animals became dyskinetic, daily dosing with a combination of L-DOPA/carbidopa was changed to a once a week treatment. At this point and on, once a week L-DOPA/carbidopa treatment produced similar level of dyskinesia to that produced at the end of the daily priming period. […]
Motor Activity: Motor activity was measured in test cages equipped with an array of 8 infra red photo sensors (perspex fronted aluminium cages, 50×60×70 cm), The number of beam interruptions due to movement was counted and summed in bins of 10 minute interval using an analogue to digital converter attached to an Intel-based PC. Motor activity was measured over a period of 6 hours and expressed both as time course measuring the number of beam interruption occurring in 10 min time segments, or as the total number of beam interruptions over the test period. […]
In the case of `N=C(N)SCCN` [S-(2-aminoethyl)-ITU, S-(2-aminoethyl)-isothiourea], the L-Dopa induced dyskinesia result is given as “did not reduce”. As for `O=[N+]([O-])c1cccc2cn[nH]c12` [7-NI, 7-nitroindazole], the entry is “reduced”; as for `N=C(N)SCCc1cccc(CCSC(=N)N)c1` [1,3 PB-ITU, S,S′-1,3-Phenylene-bis(1,2-ethanediyl)-bis-isothiourea], “did not reduce”. Then `C=CCC(=N)NCCC[C@H](N)C(=O)O` [Vinyl L-NIO, L-N5-(1-imino-3-butenyl)-ornithine], with “reduced”.
